According to patent US20110178105A1, “CLINICAL BENEFITS OF EICOSAPENTAENOIC ACID IN HUMANS” (E.I. DU PONT DE NEMOURS AND COMPANY, priority 2010, published 2011):
Values joined by “and” are separate entries in the source; they are usually repeats but may differ in a detail not shown here. Equal entries are not always repeated.

Assays:
[1] = Clinical study: fasting insulin and glucose; format: in vivo, human; conditions: 6 weeks
Experimental: Standard chemistry tests were carried at all visits (screening, enrollment, and final study visit after an overnight fast by Quest Laboratories, Cambridge, Mass.): blood urea nitrogen, creatinine, calculated glomerular filtration rate, sodium, potassium, chloride, carbon dioxide, calcium, total protein, albumin, globulin, total bilirubin, alkaline phosphatase, liver transaminases AST and ALT, and glucose. A complete blood count was also performed at all visits and included: hemoglobin, hematocrit, red blood cell count, platelet count, white blood cell count and a white blood cell count differential. Additional tests included: prothrombin time, and measurement of thyroid function including T3, T4 and T3 uptake. All subjects entering the study were required to have: liver function tests (i.e., transaminases) of less than 3 times the upper limits of normal; bilirubin and alkaline phosphatase values in the normal range; serum creatinine levels of less than 2.5 mg/dl; hemoglobin levels over 11 g/dl; a normal prothrombin time; a fasting blood glucose below 200 mg/dl; and, a blood pressure below 170/110 mmHg. All subjects who qualified for the study and met all the screening and laboratory entry criteria were scheduled for an enrollment visit within one month of screening.
At visit 2, subjects were again asked to fast for 12 hours, and information about subject characteristics including all vital signs, recent illness or hospitalization, medication and supplement use, and diet information was again obtained. […] At one week and three weeks after beginning the supplements, all study subjects were contacted by telephone and asked about any adverse effects and about their compliance, and the information on their calendars with regard to capsule use and fish intake. They were also asked about whether they had experienced any fishy aftertaste or odor, and if so, how frequent were these episodes, and how unpleasant were they? The entire process as listed above was repeated after study subjects were on the study capsules for 6 weeks at the time of the final visit. Compliance and adverse events were assessed by telephone at weeks 1 and 3 by telephone and at week 6 by questionnaire and capsule count. Over 42 days, subjects were expected to have consumed a total of 252 capsules. Compliance was calculated as a percentage of consumed capsule count/expected capsule count based on the number of days the subject was in the study. All subjects were asked to stay on their capsules until they come in for their final visit. Compliance in all participants who completed the study was based on capsule count was in excess of 85%, mean 96%.
(§1) The following laboratory measurements were carried out on an automated analyzer (Roche Diagnostics, Indianapolis, Ind.) on samples obtained in the fasting state at the randomization visit, and the final visits using frozen aliquots of serum stored at −80 degrees Celsius: 1) total cholesterol; 2) triglycerides; 3) direct high density lipoprotein [“HDL”] cholesterol; 4) direct low density lipoprotein [“LDL”] cholesterol; 5) direct small dense LDL cholesterol; 6) apolipoprotein [“apo”] B; 7) apoA-I; 8) lipoprotein (a); 9) fibrinogen; 10) high sensitivity C reactive protein [“hs-CRP”]; 11) lipoprotein associated phospholipase A2 [“Lp-PLA2”]; and, 12) insulin as previously described. See, McNamara, J. R. and Schaefer, E. J., Clin. Chim. Acta, 166:1-8 (1987); Okada, M. et al., J. Lab. Clin. Med., 132:195-201 (1998); Hirano, T. et al., J. Lipid Res., 44:2193-2201 (2003); Ai, M. et al., Am. J. Cardiol., 101:315-318 (2008); Ingelsson, E. et al., JAMA, 298:776-785 (2007); Jenner, J. L. et al., Circulation, 87:1135-1141 (1993); Schaefer, E. J. et al., Am. J. Cardiol., 95:1025-1032 (2005); McNamara, J. R. et al., Atherosclerosis, 154:229-236 (2001).

[2] = Clinical study: fasting serum lipids, lipoproteins and apolipoproteins (automated analyzer); format: in vivo, human; conditions: 6 weeks; for HDL C, 6-Week Change (%) / HDL C, Final / LDL C, Final / Lp(a), 6-Week Change (%) / Lp(a), Final / Total Cholesterol, 6-Week Change (%) / Total Cholesterol, Final / Triglyceride, 6-Week Change (%) / Triglyceride, Final / apoA-I, 6-Week Change (%) / apoA-I, Final / apoB, 6-Week Change (%) / apoB, Final / sdLDL, 6-Week Change (%) / sdLDL, Final / LDL C, 6-Week Change (%): Fast
Experimental: At visit 2, subjects were again asked to fast for 12 hours, and information about subject characteristics including all vital signs, recent illness or hospitalization, medication and supplement use, and diet information was again obtained. Subjects then had blood drawn for a metabolic profile and complete blood counts. […] Subjects (30 in each group) were then randomized equally for 6 weeks to one of four treatment arms: 1) olive oil placebo; 2) 600 mg of EPA/day; 3) 1800 mg of EPA/day; and, 4) 600 mg of DHA/day. At one week and three weeks after beginning the supplements, all study subjects were contacted by telephone and asked about any adverse effects and about their compliance, and the information on their calendars with regard to capsule use and fish intake. They were also asked about whether they had experienced any fishy aftertaste or odor, and if so, how frequent were these episodes, and how unpleasant were they? The entire process as listed above was repeated after study subjects were on the study capsules for 6 weeks at the time of the final visit. Compliance and adverse events were assessed by telephone at weeks 1 and 3 by telephone and at week 6 by questionnaire and capsule count. Over 42 days, subjects were expected to have consumed a total of 252 capsules. Compliance was calculated as a percentage of consumed capsule count/expected capsule count based on the number of days the subject was in the study. All subjects were asked to stay on their capsules until they come in for their final visit. Compliance in all participants who completed the study was based on capsule count was in excess of 85%, mean 96%.
as §1
On the samples obtained 4 hours after the fat-rich meal, total cholesterol, triglycerides, direct HDL cholesterol, and direct LDL cholesterol were measured. Direct LDL cholesterol and small dense LDL cholesterol levels were measured using kits obtained from Denka-Seiken Corporation, (Tokyo, Japan), as previously described (Okada, M. et al., supra; Hirano, T. et al., supra; Ai, M. et al., supra). Remnant lipoprotein cholesterol was measured using kits obtained from Polymedco (Cortland Manor, N.Y.) and manufactured by Otsuka Corporation (Tokyo, Japan) as previously described (McNamara, J. R. et al., Atherosclerosis, supra). All lipid assays are standardized through the Lipid Research Clinics standardization program of the Centers for Disease Control (Atlanta, Ga.). All assays had between and within run coefficients of variation of <5%. Serum fatty acid profiles were analyzed by Nutrasource Diagnostics (Guelph, Ontario, Canada).

[3] = cited from earlier work; for better absorbed than EE forms: TG forms

CCC=CCC=CCC=CCC=CCC=CC/C=C\CCC(=O)O [DHA, cis-4,7, 10, 13, 16, 19-docosahexaenoic acid, reference compound]
Insulin, 6-Week Change (%) ([1]; DHA 600 mg (n = 28), Fast): +26.7 ± 79.8% | Insulin, Final ([1]; DHA 600 mg (n = 28), Fast): 8.4 ± 4.1 µIU/mL | HDL C, 6-Week Change (%) ([2]; DHA 600 mg (n = 28)): +1.3 ± 14.7% | HDL C, Final ([2]; DHA 600 mg (n = 28)): 62.0 ± 23.7 mg/dL | LDL C, Final ([2]; DHA 600 mg (n = 28)): 130.3 ± 37.2 mg/dL | Lp(a), 6-Week Change (%) ([2]; DHA 600 mg (n = 28)): +27.7 ± 156.3% | Lp(a), Final ([2]; DHA 600 mg (n = 28)): 40.0 ± 40.1 mg/dL | Total Cholesterol, 6-Week Change (%) ([2]; DHA 600 mg (n = 28)): +2.9 ± 12.0% | Total Cholesterol, Final ([2]; DHA 600 mg (n = 28)): 216.1 ± 44.1 mg/dL | Triglyceride, 6-Week Change (%) ([2]; DHA 600 mg (n = 28)): −5.8 ± 30.4% | Triglyceride, Final ([2]; DHA 600 mg (n = 28)): 104.4 ± 58.0 mg/dL | apoA-I, 6-Week Change (%) ([2]; DHA 600 mg (n = 28)): −2.0 ± 10.5% | apoA-I, Final ([2]; DHA 600 mg (n = 28)): 177.5 ± 43.0 mg/dL | apoB, 6-Week Change (%) ([2]; DHA 600 mg (n = 28)): +6.0 ± 15.6% | apoB, Final ([2]; DHA 600 mg (n = 28)): 97.1 ± 25.7 mg/dL | sdLDL, 6-Week Change (%) ([2]; DHA 600 mg (n = 28)): −2.2 ± 24.7% | sdLDL, Final ([2]; DHA 600 mg (n = 28)): 31.1 ± 13.3 mg/dL | better absorbed than EE forms [3]: 36%

CCC=CCC=CCC=CCC=CC/C=C\CCCC(=O)O [EPA, cis-5,8, 11, 14, 17-eicosapentaenoic acid]
Glucose, 6-Week Change (%) ([1]; EPA 600 mg (n = 27)): +1.3 ± 14.0% | Glucose, Final ([1]; EPA 600 mg (n = 27)): 92.1 ± 11.0 mg/dL | Insulin, 6-Week Change (%) ([1]; EPA 600 mg (n = 27)): +17.4 ± 70.6% | Insulin, 6-Week Change (%) ([1]; EPA 600 mg (n = 27), Fast): +17.4 ± 70.6% | Insulin, Final ([1]; EPA 600 mg (n = 27), Fast): 10.2 ± 7.9 µIU/mL | LDL cholesterol levels ([2]; FIG. 5): did not increase | HDL C, 6-Week Change (%) ([2]; EPA 600 mg (n = 27)): +0.4 ± 13.7% | HDL C, Final ([2]; EPA 600 mg (n = 27)): 57.9 ± 18.0 mg/dL | LDL C, 6-Week Change (%) ([2]; EPA 600 mg (n = 27)): −2.5 ± 11.7% | LDL C, Final ([2]; EPA 600 mg (n = 27)): 118.1 ± 35.8 mg/dL | Lp(a), 6-Week Change (%) ([2]; EPA 600 mg (n = 27)): +18.3 ± 84.8% | Lp(a), Final ([2]; EPA 600 mg (n = 27)): 32.8 ± 32.4 mg/dL | Total Cholesterol, 6-Week Change (%) ([2]; EPA 600 mg (n = 27)): −1.8 ± 9.5% | Total Cholesterol, Final ([2]; EPA 600 mg (n = 27)): 199.2 ± 48.7 mg/dL | Triglyceride, 6-Week Change (%) ([2]; EPA 600 mg (n = 27)): −1.3 ± 31.6% | Triglyceride, Final ([2]; EPA 600 mg (n = 27)): 107.0 ± 43.2 mg/dL | apoA-I, 6-Week Change (%) ([2]; EPA 600 mg (n = 27)): −1.3 ± 12.4% | apoA-I, Final ([2]; EPA 600 mg (n = 27)): 173.6 ± 36.3 mg/dL | apoB, 6-Week Change (%) ([2]; EPA 600 mg (n = 27)): −2.3 ± 10.9% | apoB, Final ([2]; EPA 600 mg (n = 27)): 90.1 ± 22.8 mg/dL | sdLDL, 6-Week Change (%) ([2]; EPA 600 mg (n = 27)): −7.3 ± 18.2% | sdLDL, Final ([2]; EPA 600 mg (n = 27)): 29.5 ± 12.0 mg/dL | decrease versus baseline in small dense LDL cholesterol ([2]; EPA 600 mg/day, p=0.0087): 7.3% | HDL C, 6-Week Change (%) ([2]; EPA 1800 mg (n = 29)): +2.5 ± 12.7% | HDL C, Final ([2]; EPA 1800 mg (n = 29)): 59.9 ± 15.7 mg/dL | LDL C, 6-Week Change (%) ([2]; EPA 1800 mg (n = 29)): −2.0 ± 13.7% | LDL C, Final ([2]; EPA 1800 mg (n = 29)): 120.6 ± 26.8 mg/dL | Lp(a), 6-Week Change (%) ([2]; EPA 1800 mg (n = 29)): +5.1 ± 26.1% | Lp(a), Final ([2]; EPA 1800 mg (n = 29)): 32.2 ± 23.6 mg/dL | Total Cholesterol, 6-Week Change (%) ([2]; EPA 1800 mg (n = 29)): −1.7 ± 11.2% | Total Cholesterol, Final ([2]; EPA 1800 mg (n = 29)): 201.1 ± 35.3 mg/dL | Triglyceride, 6-Week Change (%) ([2]; EPA 1800 mg (n = 29)): −5.0% and −5.0 ± 28.6% | Triglyceride, Final ([2]; EPA 1800 mg (n = 29)): 102.8 ± 82.8 mg/dL | apoA-I, 6-Week Change (%) ([2]; EPA 1800 mg (n = 29)): +0.4 ± 10.8% | apoA-I, Final ([2]; EPA 1800 mg (n = 29)): 173.1 ± 31.3 mg/dL | apoB, 6-Week Change (%) ([2]; EPA 1800 mg (n = 29)): −1.6 ± 12.2% | apoB, Final ([2]; EPA 1800 mg (n = 29)): 91.7 ± 19.1 mg/dL | sdLDL, 6-Week Change (%) ([2]; EPA 1800 mg (n = 29)): −8.8 ± 19.5% | sdLDL, Final ([2]; EPA 1800 mg (n = 29)): 30.6 ± 9.4 mg/dL | decrease versus baseline in small dense LDL cholesterol ([2]; EPA 1800 mg/day, p=0.018): 8.8% | better absorbed than EE forms [3]: 48% | EPA incorporation into plasma lipids ([3]; administered as an EE): considerably smaller
